In patent US9585393B2, “Saflufenacil, flumioxazin, and 2,4-D weed control compositions and methods of use thereof” (Valent U.S.A., Corporation, priority 2014, dated 2017):

Legend:
Palmer Amaranth = test: Field test, post emergence weed control: Palmer Amaranth; type: in vivo, Amaranthus palmeri; settings: 12 DAT, MSO 1% v/v
Description: (§1) The following field test was conducted during spring in Mississippi. Sharpen® was used in the test as the source of saflufenacil. Valor® was used in the test as the source of flumioxazin. Roundup Ready soybeans (Glycine max) were used in the test as the crop plant. All of the treatments contained MSO concentrate oil at 1% v/v.
(§2) When the test began, the test plot had Horseweed that was 6 to 20 inches tall. Applications were administered at the concentrations as follows. Saflufenacil was administered at 0.011, 0.017 or 0.022 lb ai/acre (indicated in the table as “S” followed by the amount). Flumioxazin was administered at 0.064 lb ai/acre, and 2,4-D was administered at 0.5 lb ai/acre throughout the experiment. Three days after the treatment (3 DAT), soybeans were planted across the front of the plot. On 7 DAT, another pass of soybeans was planted across the front of the plot with a 30 inch planter. Each test was
(§3) On 11 DAT, readings were taken to determine the survival of Horseweed and Crabgrass. On 12 DAT, readings were taken to determine the survival of Palmer Amaranth, Broadleaf Signalgrass, Common Barnyardgrass, Yellow Nutsedge, and Eclipta. Survival ratings were taken by counting the number of alive and dead plants at the time of the reading. The pytotoxicity of each treatment was also evaluated by examining the soybeans at 11 and 12 DAT. All data was analyzed using Bartlett's test and with p value of […] for determining significance of the results. The Effect of Saflufenacil, Flumioxazin and 2,4-D on Weeds.”

Common Barnyardgrass = test: Field test, post emergence weed control: Common Barnyardgrass; type: in vivo, Echinochloa crus-galli; settings: 12 DAT, MSO 1% v/v
Description: as §1, §2, §3

Horseweed = test: Field test, post emergence weed control: Horseweed; type: in vivo, Conyza Canadensis; settings: for Effect on Weeds, Plants: Horseweed: 11 DAT, MSO 1% v/v; for control (Actual % Control) / % Alone: Horseweed; for control (Actual % Control): rounded Table 1 values, saflufenacil 0.011, flumioxazin 0.064, 2,4-D 0.5 lb ai/acre as present; for % Alone: synergy calculation, each component alone (saflufenacil 0.011, 2,4-D 0.5, flumioxazin 0.064 lb ai/acre)
Description: as §1, §2, §3
Applicants used the widely accepted fraction method for determining synergy. The fraction method involves not merely adding together the individual control percentages together, as that will often be greater than 100%. The fraction method involves taking the control as a decimal value (X), multiplying the 1 minus X values together, then taking the “1 minus” value to get the calculated control as a decimal value. For example, if two products give 60% control, the additive or predicted value would be 84% and not 120%. See Rao, V. S., Principles of Weed Science, Second Edition, (2000) 351-352, and the illustrative example below.

Yellow Nutsedge = test: Field test, post emergence weed control: Yellow Nutsedge; type: in vivo, Cyperus esculentus; settings: 12 DAT, MSO 1% v/v
Description: as §1, §2, §3

Eclipta = test: Field test, post emergence weed control: Eclipta; type: in vivo, Eclipta prostrata; settings: 12 DAT, MSO 1% v/v
Description: as §1, §2, §3

Large Crabgrass = test: Field test, post emergence weed control: Large Crabgrass; type: in vivo, Digitaria sanguinalis; settings: 11 DAT, MSO 1% v/v
Description: as §1, §2, §3

Broadleaf Signalgrass = test: Field test, post emergence weed control: Broadleaf Signalgrass; type: in vivo, Brachiaria platyhylla; settings: 12 DAT, MSO 1% v/v
Description: as §1, §2, §3

[1] = no saflufenacil, flumioxazin 0.064 lb ai/acre, 2,4-D 0.5 lb ai/acre
[2] = saflufenacil 0.011 lb ai/acre (flumioxazin 0.064, 2,4-D 0.5 lb ai/acre where in the treatment)
[3] = saflufenacil 0.017 lb ai/acre (flumioxazin 0.064, 2,4-D 0.5 lb ai/acre where in the treatment)
[4] = saflufenacil 0.022 lb ai/acre (flumioxazin 0.064, 2,4-D 0.5 lb ai/acre where in the treatment)

O=C(O)COc1ccc(Cl)cc1Cl [2,4-D, 2,4-Dichlorophenoxyacetic acid]
Effect on Weeds, Plants: Palmer Amaranth (Palmer Amaranth; [1]): 91.0
Effect on Weeds, Plants: Common Barnyardgrass (Common Barnyardgrass; [1]): 15.0
Effect on Weeds, Plants: Horseweed (Horseweed; [1]): 11.7
control (Actual % Control) (Horseweed): 12%
% Alone (Horseweed): 12.00%
Effect on Weeds, Plants: Yellow Nutsedge (Yellow Nutsedge; [1]): 8.3
Effect on Weeds, Plants: Eclipta (Eclipta; [1]): 91.0
Effect on Weeds, Plants: Large Crabgrass (Large Crabgrass; [1]): 50.0
Effect on Weeds, Plants: Broadle Signalgrass (Broadleaf Signalgrass; [1]): 21.7

C#CCN1C(=O)COc2cc(F)c(N3C(=O)C4=C(CCCC4)C3=O)cc21 [Flumioxazin, 2-[7-fluoro-3,4-dihydro-3-oxo-4-(2-propynyl)-2H-1,4-benzoxazin-6-yl]-4,5,6,7-tetrahydro-1H-isoindole-1,3(2H)-dione]
Effect on Weeds, Plants: Palmer Amaranth (Palmer Amaranth; [1]): 96.0
Effect on Weeds, Plants: Common Barnyardgrass (Common Barnyardgrass; [1]): 45.0
Effect on Weeds, Plants: Horseweed (Horseweed; [1]): 15.0
control (Actual % Control) (Horseweed): 15%
% Alone (Horseweed): 15.00%
Effect on Weeds, Plants: Yellow Nutsedge (Yellow Nutsedge; [1]): 42.5
Effect on Weeds, Plants: Eclipta (Eclipta; [1]): 86.3
Effect on Weeds, Plants: Large Crabgrass (Large Crabgrass; [1]): 70.0
Effect on Weeds, Plants: Broadle Signalgrass (Broadleaf Signalgrass; [1]): 45.0

CC(C)N(C)S(=O)(=O)NCc1cc(-n2c(=O)cc(C(F)(F)F)n(C)c2=O)c(F)cc1Cl [S, N′-[2-chloro-4-fluoro-5-(3-methyl-2,6-dioxo-4-(trifluoromethyl)-3,6-dihydro-1(2H)-pyrimidinyl)benzyl]-N-isopropyl-N-methylsulfamide]
Effect on Weeds, Plants: Palmer Amaranth (Palmer Amaranth; [2]): 91.0
Effect on Weeds, Plants: Palmer Amaranth (Palmer Amaranth; [3]): 91.3
Effect on Weeds, Plants: Palmer Amaranth (Palmer Amaranth; [4]): 96.0
Effect on Weeds, Plants: Common Barnyardgrass (Common Barnyardgrass; [2]): 31.7
Effect on Weeds, Plants: Common Barnyardgrass (Common Barnyardgrass; [3]): 41.7
Effect on Weeds, Plants: Common Barnyardgrass (Common Barnyardgrass; [4]): 25.0
Effect on Weeds, Plants: Horseweed (Horseweed; [2]): 66.7
Effect on Weeds, Plants: Horseweed (Horseweed; [3]): 78.3
Effect on Weeds, Plants: Horseweed (Horseweed; [4]): 86.7
control (Actual % Control) (Horseweed): 67%
% Alone (Horseweed): 67.00%
Effect on Weeds, Plants: Yellow Nutsedge (Yellow Nutsedge; [2]): 23.3
Effect on Weeds, Plants: Yellow Nutsedge (Yellow Nutsedge; [3]): 35.0
Effect on Weeds, Plants: Yellow Nutsedge (Yellow Nutsedge; [4]): 30.0
Effect on Weeds, Plants: Eclipta (Eclipta; [2]): 83.0
Effect on Weeds, Plants: Eclipta (Eclipta; [3]): 91.3
Effect on Weeds, Plants: Eclipta (Eclipta; [4]): 93.0
Effect on Weeds, Plants: Large Crabgrass (Large Crabgrass; [2]): 43.3
Effect on Weeds, Plants: Large Crabgrass (Large Crabgrass; [3]): 60.0
Effect on Weeds, Plants: Large Crabgrass (Large Crabgrass; [4]): 56.7
Effect on Weeds, Plants: Broadle Signalgrass (Broadleaf Signalgrass; [2]): 31.7
Effect on Weeds, Plants: Broadle Signalgrass (Broadleaf Signalgrass; [3]): 45.0
Effect on Weeds, Plants: Broadle Signalgrass (Broadleaf Signalgrass; [4]): 31.7
